In this test the test system is signal transduction system of living organisms. In words: Cell culture experiments on bioactivity of the main constituent peptide. Type of test: cell-based. To be noted: data not shown.

As to CH3CO-(Arg-Ala-Asp-Ala)4-NH2, the “bioactivity by acting on the signal transduction system of living organisms” value is recorded as “does not exhibit bioactivity”.

(Values after US20200164100A1, “SURGICAL METHODS EMPLOYING PURIFIED AMPHIPHILIC PEPTIDE COMPOSITIONS” (priority 2013, published 2020).)
